Article PMC9959553, “Promising Antifungal Molecules against Mucormycosis Agents Identified from Pandemic Response Box®: In Vitro and In Silico Analyses” (Journal of Fungi, 2023)

tested on: R. oryzae UCP1295; assay: Screening of the Pandemic Response Box library at 5 µM; type: cell-based, Rhizopus oryzae; details: 48 h, Table S1, mean of the four values
In short: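 Growth inhibition was read at 600 nm after conidia (2 × 10^5/mL) grew 48 h at 37 °C, 5% CO2, with 5 μM compound in glucose-supplemented (2%), MOPS-buffered RPMI (pH 7.2). Controls were posaconazole at 5 μM and 1% DMSO. The selection cut-off was at least 60% inhibition.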

Compared with `CCOC(=O)/C=C/[C@H](C[C@@H]1CCNC1=O)NC(=O)[C@@H](CC(=O)[C@@H](NC(=O)c1cc(C)on1)C(C)C)Cc1ccc(F)cc1` [MMV1580491], `C[C@H](NC(=O)C(=O)Nc1ccccc1C(C)(C)C)C(=O)N[C@@H](CC(=O)O)C(=O)COc1c(F)c(F)cc(F)c1F` [MMV1580794] is higher in “% of growth inhibition, Mean” value: -18.6% for the first, 1.8% for the second.

First: CC(C)Oc1ccc(-c2nc(-c3cccc4c3CC[C@@H]4NCCO)no2)cc1C#N [MMV1580492]
Second: CC(C)c1ccc(COc2cccc(-c3cc([S+](C)[O-])c(C#N)c(=O)[nH]3)c2)cc1 (stereo not shown) [MMV1582497]
The “% of growth inhibition, Mean” value of the first is higher: -7.3% for the first, -17.1% for the second.

Going from `O=C(/C=C\n1cnc(-c2cc(C(F)(F)F)cc(C(F)(F)F)c2)n1)NNc1ccccn1` [MMV1580493] to `O=C(Nc1ccc(Cl)c(C(F)(F)F)c1)C(CCCl)C(=O)Nc1ccc(Cl)c(C(F)(F)F)c1` [MMV1580840], the “% of growth inhibition, Mean” value falls from 42.7% to -7.5%.

First: CCC[C@H](NC(=O)[C@@H]1[C@H]2CCC[C@H]2CN1C(=O)[C@@H](NC(=O)[C@@H](NC(=O)c1cnccn1)C1CCCCC1)C(C)(C)C)C(=O)C(=O)NC1CC1 [MMV1580494]
Second: CC(C)(C)NC(=O)N[C@H](C(=O)N1C[C@H]2[C@@H]([C@H]1C(=O)NC(CC1CCC1)C(=O)C(N)=O)C2(C)C)C(C)(C)C (stereo partly shown) [MMV1580497]
The “% of growth inhibition, Mean” value of the first is lower: -15.1% for the first, -8.5% for the second.

Going from `Nc1cnn(C2OC(CO)C(O)C2O)c(=O)n1` (stereo not shown) [MMV1580495] to `OC1O[C@H](CSc2ccc(F)cc2)[C@@H](O)[C@H]1O` (stereo partly shown) [MMV1581550], the “% of growth inhibition, Mean” value falls from -5.9% to -29.6%.

Going from `NC(=S)N/N=C/c1ncccc1N` [MMV1580496] to `CCc1cc(O)c(Oc2cccnc2N)cc1F` [MMV1580854], the “% of growth inhibition, Mean” value falls from -9.1% to -36.7%.

Going from `O=C(O)C[C@H]1CC[C@H](c2ccc(-c3ccc(Nc4ccc(C(F)(F)F)nc4)cn3)cc2)CC1` [MMV1580498] to `FC(F)(F)Oc1ccc(Nc2ccc3cccc(Cl)c3n2)cc1` [MMV1581032], the “% of growth inhibition, Mean” value rises from -26.7% to -3.7%.

Going from `COc1ccc(NS(=O)(=O)c2ccc(Cl)s2)cn1` [MMV1580499] to `O=S(=O)(NCB(O)O)c1cc2c(Cl)ccc(Cl)c2s1` [MMV1580841], the “% of growth inhibition, Mean” value falls from -3.0% to -42.4%.

First: Cn1c2ccccc2c(=O)c2c(O)cccc21 [MMV1580500]
Second: Cc1nc2ccc(Cl)cc2c(-c2ccccc2)c1CC(=O)O [MMV1580801]
The “% of growth inhibition, Mean” value of the first is higher: -3.0% for the first, -8.7% for the second.

First: CC1(C)CC(NC(=O)C(=O)Nc2ccc(Cl)cc2)CC(C)(C)N1 [MMV1580501]
Second: CC(C)(C)OC(=O)NCc1ccc(C(=O)N[C@H]2CCOC2=O)cc1 [MMV1581547]
The “% of growth inhibition, Mean” value of the first is lower: -11.4% for the first, -3.1% for the second.

Compared with `c1cc(CN2CCCNCCNCCCNCC2)ccc1CN1CCCNCCNCCCNCC1` [MMV1580502], `Clc1cc2nc(C3CCNCC3)n(Cc3ccc(CNCCc4c[nH]cn4)cc3)c2cc1Cl` [MMV1580842] is lower in “% of growth inhibition, Mean” value: 52.2% for the first, 0.4% for the second.

Compared with `CC(=O)N1c2ccccc2NC2=C(C(=O)CC(C)(C)C2)C1c1ccc(OCc2ccccc2)cc1` (stereo not shown) [MMV1580503], `Oc1ccc(NCc2ccccc2OCc2ccccc2)cc1` [MMV1580504] is lower in “% of growth inhibition, Mean” value: -1.0% for the first, -5.9% for the second.

First: O=C(Nc1ccc(N2CCN(C(=O)c3ccccc3)CC2)cc1)c1ccc2c(c1)OCO2 [MMV1580505]
Second: O=C(Nc1ccccc1)N(Cc1cc(Br)ccc1O)c1ccc(F)cc1 [MMV1581552]
The “% of growth inhibition, Mean” value of the first is higher: -9.9% for the first, -12.1% for the second.

Compared with `CC[C@@]1(O)C(=O)OCc2c1cc1n(c2=O)Cc2cc3c([N+](=O)[O-])cccc3nc2-1` [MMV1580796], `CCCCc1ccc(-c2cc(C(=O)O)cc(-c3ccc(Cl)cc3)n2)cc1` [MMV1580852] is lower in “% of growth inhibition, Mean” value: -1.7% for the first, -12.9% for the second.

First: OCCC#Cc1nc(-c2ccc(F)cc2)c(-c2ccncc2)n1CCCc1ccccc1 [MMV1580797]
Second: Fc1ccc(-n2cc(Cn3c(-c4cccc(F)c4)nc4ccccc43)nn2)cc1 [MMV1580850]
The “% of growth inhibition, Mean” value of the first is higher: -16.9% for the first, -26.0% for the second.

Compared with `Cc1[nH]c2ccccc2c1CC(=O)N[C@@H](Cc1ccccc1)C(=O)N(C)c1ccccc1` [MMV1580798], `O=C(N[C@H](CCS)C(=O)N[C@H](Cc1ccccc1)C(=O)O)c1cc2ccccc2[nH]1` [MMV1581557] is higher in “% of growth inhibition, Mean” value: -2.6% for the first, 0.3% for the second.

First: COc1ccc(COc2cc3oc(=O)c4cc(C(C)O)ccc4c3cc2OC)cc1 (stereo not shown) [MMV1580799]
Second: COc1ccc(C[C@@H](C)[C@@H](C)Cc2ccc(OC)c(OC)c2)cc1OC [MMV1581036]
The “% of growth inhibition, Mean” value of the first is higher: -1.6% for the first, -8.8% for the second.

Compared with `N#Cc1cc([N+](=O)[O-])ccc1Oc1ccccc1Cl` [MMV1580800], `Cc1ccccc1NC(=O)Nc1cccc([N+](=O)[O-])c1` [MMV1581029] is higher in “% of growth inhibition, Mean” value: -8.1% for the first, 1.6% for the second.

First: Nc1nc(NC2Cc3ccc(F)cc3C2)nc(N2CCCCC2)n1 (stereo not shown) [MMV1580839]
Second: Nc1cccc(-c2nc(N)nc(NC3Cc4ccccc4C3)n2)c1 [MMV1581555]
The “% of growth inhibition, Mean” value of the first is higher: -3.1% for the first, -6.9% for the second.

First: C[Si]1(C)CCN(Cc2cc(-c3ccc(Cl)cc3)n(-c3ccc(Cl)cc3)n2)CC1 [MMV1580843]
Second: CN(C(=O)C1(c2ccc(Cl)cc2)CCC1)c1ccccc1 [MMV1581030]
The “% of growth inhibition, Mean” value of the first is lower: -17.9% for the first, -7.5% for the second.

Going from `CC(=O)N[C@H](C)C(=O)N[C@H](Cc1ccccc1)C(=O)O` [MMV1580845] to `N[C@H](CCC(=O)N[C@@H](Cc1c[nH]c2ccccc12)C(=O)O)C(=O)O` [MMV1581033], the “% of growth inhibition, Mean” value rises from -37.6% to 2.8%.

First: COc1ccc(SC(=O)N[C@H](CCC(=O)O)C(=O)O)cc1 [MMV1580846]
Second: COc1ccc2c(c1)cc(CNC(=O)c1cc3ccccc3o1)n2CC(=O)O [MMV1581553]
The “% of growth inhibition, Mean” value of the first is lower: -33.5% for the first, -20.7% for the second.

Going from `CCCCCc1ccc(C(=O)NCCn2cc(CCCCCc3c[nH]c(N)n3)nn2)cc1.Cl` [MMV1580847] to `CCCCCOc1ccc(/C=C2\Oc3c(ccc(O)c3O)C2=O)c(O)c1` [MMV1580851], the “% of growth inhibition, Mean” value rises from -16.8% to -13.7%.

Compared with `NC(=O)c1cnc2ccc(S(=O)(=O)c3ccccc3)cc2c1Nc1ccc(O)cc1` [MMV1580848], `NC(=O)c1[nH]c2ccc(S(N)(=O)=O)cc2c1-c1ccccc1` [MMV1581556] is lower in “% of growth inhibition, Mean” value: -15.6% for the first, -42.8% for the second.

Compared with `C=CCc1cc(Cc2cnc(N)nc2N)cc(OC)c1O` [MMV1580849], `CCc1cc(Cc2cnc(N)nc2N)cc2c1N(C)CCC2C` (stereo not shown) [MMV1582490] is higher in “% of growth inhibition, Mean” value: -19.9% for the first, -3.0% for the second.

Compared with `O=C(Nc1cccc(C2=NCCN2)c1)c1ccc(-c2ccc(C(=O)Nc3cccc(C4=NCCN4)c3)cc2)cc1` [MMV1580853], `Cc1cccc(C)c1C(=O)Nc1nc(-c2ccccn2)cc2ccccc12` [MMV1581558] is higher in “% of growth inhibition, Mean” value: -34.0% for the first, 53.3% for the second.

First: O=C(O)c1sccc1S(=O)(=O)n1ccc2cc(Br)ccc21 [MMV1580855]
Second: C[C@@H](O)[C@H](N)C(=O)NS(=O)(=O)c1cccc(-c2ccc3[nH]ncc3c2)c1.Cl.Cl [MMV1582494]
The “% of growth inhibition, Mean” value of the first is higher: -1.0% for the first, -14.6% for the second.

Compared with `Cc1c(F)cccc1NC(=O)Nc1ccc(Cl)c(S(=O)(=O)[C@H]2CCCNC2)c1O` [MMV1581034], `CC(C)(C)c1cccc(-c2nc3cc(C(=N)N)ccc3[nH]2)c1O` [MMV1581548] is lower in “% of growth inhibition, Mean” value: -0.9% for the first, -15.8% for the second.

First: NC(=O)c1ccc(I)c([N+](=O)[O-])c1 [MMV1581035]
Second: Nc1ccc2oc(=O)ccc2c1I [MMV1581378]
The “% of growth inhibition, Mean” value of the first is lower: -5.0% for the first, -3.7% for the second.

Going from `O=C1[C@H](CC[C@H](O)c2ccc(F)cc2)[C@@H](c2ccc(O)cc2)N1c1ccc(F)cc1` [MMV1581377] to `Cc1cc(Nc2ccc(F)cc2)nc(SCc2nc3ccccc3[nH]2)n1` [MMV1582498], the “% of growth inhibition, Mean” value falls from 3.5% to -17.0%.

Compared with `Cc1cc(O)c2c(c1)C(=O)c1c(I)c(O)c(I)c(O)c1C2=O` [MMV1581545], `Cc1nc(-c2ccc(C3N(C)c4ccc(F)cc4C(=O)N3c3ccccc3)s2)cs1` (stereo not shown) [MMV1582492] is higher in “% of growth inhibition, Mean” value: -41.8% for the first, -6.7% for the second.

Compared with `O=c1cc(Nc2ccc3ccccc3c2)[nH]c(=O)[nH]1` [MMV1581546], `Nc1cc(N)c2nc(-c3ccccc3)c(Nc3ccc(F)cc3)nc2c1` [MMV1581554] is lower in “% of growth inhibition, Mean” value: -6.0% for the first, -29.5% for the second.

Compared with `CCc1nc(N)nc(N)c1C#CCc1ccccc1` [MMV1581549], `Cc1c[nH]c(=O)nc1NCc1ccccc1` [MMV1582489] is lower in “% of growth inhibition, Mean” value: 18.7% for the first, -18.8% for the second.

Going from `c1ccc(-c2nnc3c4ccccc4c(N4CCNCC4)nn23)cc1` [MMV1581551] to `C[C@@H](NC(=O)c1ccccc1-c1ccccc1)B(O)O` [MMV1582493], the “% of growth inhibition, Mean” value falls from -11.4% to -37.1%.

Compared with `CC(C)Cn1c(=O)n(C)c(=O)c2c(-c3cncn3C)n(Cc3cccc4ccccc34)nc21` [MMV1581559], `Cl.Nc1nc(-c2ccccc2)nc2c1ncn2[C@@H]1O[C@H](COS(=O)(=O)NC(=O)c2ccccc2O)[C@@H](O)[C@H]1O` [MMV1582488] is higher in “% of growth inhibition, Mean” value: -18.9% for the first, -7.5% for the second.

First: CC(=N)N1CC[C@H](SC2=C(C(=O)O)N3C(=O)[C@@H]([C@@H](C)O)[C@H]3C2)C1 [MMV1582382]
Second: O=C(CCCC(F)(F)F)N1CCC(c2nc(-c3nccs3)no2)CC1 [MMV1582491]
The “% of growth inhibition, Mean” value of the first is higher: -12.0% for the first, -26.7% for the second.

Compared with `CCCCCCCCC(CP(=O)(O)C(C)N)C(=O)O` (stereo not shown) [MMV1582487], `CCC(CC)[C@H](NC(C)=O)[C@@H]1[C@H](O)[C@@H](C(=O)O)C[C@H]1NC(=N)N` [MMV1593511] is higher in “% of growth inhibition, Mean” value: -11.5% for the first, 1.4% for the second.

Going from `C(=C\c1nc2ccccc2[nH]1)/c1ccc2c(c1)OCO2` [MMV1582495] to `N#Cc1c(F)c(Cl)c(NCc2ccccc2)c(C#N)c1F` [MMV1582496], the “% of growth inhibition, Mean” value rises from -6.2% to -1.3%.
